Among the data in patent US20220340633A1 (Adepthera LLC, priority 2016, published 2022) are Emax values, retold here.

Test [1] concerns the target T1, CLR/RAMP2 receptor (Homo sapiens, UniProt O60895+Q16602).
T1 construct: host or cells: CHO-K1 cells
Put plainly: CLR/RAMP2 arrestin receptor activation assay (agonist). Type of test: cell-based. The note with it: CHO-K1, read-out: CLR/RAMP 2 Max Activity % of positive control, CHO-K1 cells; % of positive control (ADM).
Description: (§1) Using a receptor activation assay, the dose-dependent stimulatory response of peptide agonists of the present invention on a CLR/RAMP1 receptor, a CLR/RAMP2, or a CLR/RAMP3 receptor complex was determined. A cell line carrying the recombinant CLR/RAMP1, CLR/RAMP2, or a CLR/RAMP3 receptor was employed in the assay. Peptide agonist activities were tested, in duplicate, at 10 different concentrations, starting with 1.0 μM and serially diluted 3-fold, in DMSO. […] The CLR/RAMP1 cAMP, CLR/RAMP2 arrestin assays, and CLR/RAMP3 cAMP (DiscoveRx, Fremont, Calif.) were used.

In test [2] the target is CLR/RAMP1 receptor (Homo sapiens, UniProt O60894+Q16602). The test is described as follows: CLR/RAMP1 cAMP receptor activation assay (agonist). It is filed as cell-based. As to conditions: % of positive control (β-CGRP). The arrangement: host or cells: 1321N1 cells.
CLR/RAMP1 receptor, sequence (Q16602 23-461): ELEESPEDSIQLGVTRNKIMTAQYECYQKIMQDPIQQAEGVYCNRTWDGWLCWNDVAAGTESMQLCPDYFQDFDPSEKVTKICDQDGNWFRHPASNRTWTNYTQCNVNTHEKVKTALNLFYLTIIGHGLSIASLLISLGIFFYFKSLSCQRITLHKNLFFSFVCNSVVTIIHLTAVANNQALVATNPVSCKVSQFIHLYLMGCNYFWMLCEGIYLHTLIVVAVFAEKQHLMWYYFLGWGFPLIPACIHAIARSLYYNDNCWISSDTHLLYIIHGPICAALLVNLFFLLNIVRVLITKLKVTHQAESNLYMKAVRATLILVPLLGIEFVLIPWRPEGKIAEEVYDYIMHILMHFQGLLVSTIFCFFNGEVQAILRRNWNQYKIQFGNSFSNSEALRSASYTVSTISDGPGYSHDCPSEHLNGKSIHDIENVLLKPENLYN
CLR/RAMP1 receptor, sequence (O60894 27-148): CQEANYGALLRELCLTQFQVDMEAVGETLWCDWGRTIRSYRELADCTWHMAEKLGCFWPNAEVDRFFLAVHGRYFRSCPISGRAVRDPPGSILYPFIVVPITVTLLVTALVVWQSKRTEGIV
Description: as §1
The mark [3] stands for this setting: 1321-N1, read-out: CLR/RAMP 1 Max Activity % of positive control, 1321N1 cells.

Read-outs that look alike come from different tables or passages of the source. Positions of bridges follow the written chain, without caps; N, C: chain ends. Non-standard residues stand in square brackets, D forms with d. Residues, ends and D or L forms follow the SMILES beside them. *: point of attachment. Palmitoyl = CCCCCCCCCCCCCCCC(=O)*; AEEA = NCCOCCOCC(=O)O

T1 sequence (Q16602 23-461): as the sequence (Q16602 23-461) above
T1 sequence (O60895 43-175): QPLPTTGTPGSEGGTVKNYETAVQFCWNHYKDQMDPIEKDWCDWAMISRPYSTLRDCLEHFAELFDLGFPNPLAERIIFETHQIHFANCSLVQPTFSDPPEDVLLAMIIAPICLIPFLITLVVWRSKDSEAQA

Turning to `CCCCCCCCCCCCCCCC(=O)NCCCC[C@H](NC(=O)[C@@H](NC(=O)COCCOCCN)[C@@H](C)O)C(=O)N[C@@H](CCCCN)C(=O)N[C@H](C(=O)N[C@@H](CC(C)C)C(=O)N[C@@H](CCCNC(=N)N)C(=O)N[C@H](C(=O)NCC(=O)N[C@H]1CSSC[C@@H](C(=O)N[C@H](C(=O)N[C@H](C(=O)N[C@@H](CCC(N)=O)C(=O)N[C@@H](CCCCN)C(=O)N[C@@H](CC(C)C)C(=O)N[C@@H](C)C(=O)N[C@@H](Cc2c[nH]cn2)C(=O)N[C@@H](CCC(N)=O)C(=O)N[C@H](C(=O)N[C@@H](Cc2ccc(O)cc2)C(=O)N[C@@H](CCC(N)=O)C(=O)N[C@@H](Cc2ccccc2)C(=O)N[C@H](C(=O)N[C@@H](CC(=O)O)C(=O)N[C@@H](CCCCN)C(=O)N[C@@H](CC(=O)O)C(=O)N[C@@H](CCCCN)C(=O)N[C@@H](CC(=O)O)C(=O)N[C@@H](CC(N)=O)C(=O)N[C@H](C(=O)N[C@@H](C)C(=O)N2CCC[C@H]2C(=O)N[C@H](C(=O)N[C@@H](CC(=O)O)C(=O)N2CCC[C@H]2C(=O)N[C@@H](CO)C(=O)N[C@@H](CO)C(=O)N2CCC[C@H]2C(=O)N[C@@H](Cc2c[nH]cn2)C(=O)N[C@@H](CO)C(=O)N[C@@H](Cc2ccc(O)cc2)C(N)=O)C(C)C)C(C)C)[C@@H](C)O)[C@@H](C)CC)C(C)C)[C@@H](C)O)NC(=O)[C@H]([C@@H](C)O)NC(=O)CNC(=O)[C@H](Cc2ccccc2)NC(=O)[C@H](CCCNC(=N)N)NC1=O)[C@@H](C)O)[C@@H](C)O` [SEQ ID NO: 42], the Emax in test [1] turned out to be 76%; in test [2] (setting [3]), 56%.

As to `CCCCCCCCCCCCCCCC(=O)NCCCC[C@H](NC(=O)COCCOCCN)C(=O)N[C@H]1CSSC[C@@H](C(=O)N[C@H](C(=O)N[C@H](C(=O)N[C@@H](CCC(N)=O)C(=O)N[C@@H](CCCCN)C(=O)N[C@@H](CC(C)C)C(=O)N[C@@H](C)C(=O)N[C@@H](Cc2c[nH]cn2)C(=O)N[C@@H](CCC(N)=O)C(=O)N[C@H](C(=O)N[C@@H](Cc2ccc(O)cc2)C(=O)N[C@@H](CCC(N)=O)C(=O)N[C@@H](Cc2ccccc2)C(=O)N[C@H](C(=O)N[C@@H](CC(=O)O)C(=O)N[C@@H](CCCCN)C(=O)N[C@@H](CC(=O)O)C(=O)N[C@@H](CCCCN)C(=O)N[C@@H](CC(=O)O)C(=O)N[C@@H](CC(N)=O)C(=O)N[C@@H](CO)C(=O)N[C@@H](C)C(=O)N2CCC[C@H]2C(=O)N[C@H](C(=O)N[C@@H](CC(=O)O)C(=O)N2CCC[C@H]2C(=O)N[C@@H](CO)C(=O)N[C@@H](CO)C(=O)N2CCC[C@H]2C(=O)N[C@@H](Cc2c[nH]cn2)C(=O)N[C@@H](CO)C(=O)N[C@@H](Cc2ccc(O)cc2)C(N)=O)C(C)C)[C@@H](C)O)[C@@H](C)CC)C(C)C)[C@@H](C)O)NC(=O)[C@H]([C@@H](C)O)NC(=O)CNC(=O)[C@H](Cc2ccccc2)NC(=O)[C@H](CCCNC(=N)N)NC1=O` [SEQ ID NO: 43] (H-[AEEA]K(Palmitoyl)CRFGTCTVQKLAHQIYQFTDKDKDNSAPVDPSSPHSY-NH2; disulfide 3-8), the Emax in test [1] amounted to 30%; in test [2] (setting [3]) it was 39%.

As to `CCCCCCCCCCCCCCCC(=O)NCCCC[C@H](NC(=O)COCCOCCN)C(=O)NCC(=O)N[C@H]1CSSC[C@@H](C(=O)N[C@H](C(=O)N[C@H](C(=O)N[C@@H](CCC(N)=O)C(=O)N[C@@H](CCCCN)C(=O)N[C@@H](CC(C)C)C(=O)N[C@@H](C)C(=O)N[C@@H](Cc2c[nH]cn2)C(=O)N[C@@H](CCC(N)=O)C(=O)N[C@H](C(=O)N[C@@H](Cc2ccc(O)cc2)C(=O)N[C@@H](CCC(N)=O)C(=O)N[C@@H](Cc2ccccc2)C(=O)N[C@H](C(=O)N[C@@H](CC(=O)O)C(=O)N[C@@H](CCCCN)C(=O)N[C@@H](CC(=O)O)C(=O)N[C@@H](CCCCN)C(=O)N[C@@H](CC(=O)O)C(=O)N[C@@H](CO)C(=O)N[C@@H](C)C(=O)N2CCC[C@H]2C(=O)N[C@H](C(=O)N[C@@H](CC(=O)O)C(=O)N2CCC[C@H]2C(=O)N[C@@H](CO)C(=O)N[C@@H](CO)C(=O)N2CCC[C@H]2C(=O)N[C@@H](Cc2c[nH]cn2)C(=O)N[C@@H](CO)C(=O)N[C@@H](Cc2ccc(O)cc2)C(N)=O)C(C)C)[C@@H](C)O)[C@@H](C)CC)C(C)C)[C@@H](C)O)NC(=O)[C@H]([C@@H](C)O)NC(=O)CNC(=O)[C@H](Cc2ccccc2)NC(=O)[C@H](CCCNC(=N)N)NC1=O` [SEQ ID NO: 46] (H-[AEEA]K(Palmitoyl)GCRFGTCTVQKLAHQIYQFTDKDKDSAPVDPSSPHSY-NH2; disulfide 4-9), the Emax in test [1] stood at 104%; in test [2] (setting [3]), 60%.

Consider `CCCCCCCCCCCCCCCC(=O)NCCCC[C@H](NC(=O)COCCOCCN)C(=O)NCC(=O)N[C@H]1CSSC[C@@H](C(=O)N[C@H](C(=O)N[C@H](C(=O)N[C@@H](CCC(N)=O)C(=O)N[C@@H](CCCCN)C(=O)N[C@@H](CC(C)C)C(=O)N[C@@H](C)C(=O)N[C@@H](Cc2c[nH]cn2)C(=O)N[C@@H](CCC(N)=O)C(=O)N[C@H](C(=O)N[C@@H](Cc2ccc(O)cc2)C(=O)N[C@@H](CCC(N)=O)C(=O)N[C@@H](Cc2ccccc2)C(=O)N[C@H](C(=O)N[C@@H](CC(=O)O)C(=O)N[C@@H](CCCCN)C(=O)N[C@@H](CC(=O)O)C(=O)N[C@@H](CCCCN)C(=O)N[C@@H](CC(=O)O)C(=O)N[C@@H](CC(N)=O)C(=O)N[C@H](C(=O)N[C@@H](C)C(=O)N2CCC[C@H]2C(=O)N[C@H](C(=O)N[C@@H](CC(=O)O)C(=O)N2CCC[C@H]2C(=O)N[C@@H](CO)C(=O)N[C@@H](CO)C(=O)N2CCC[C@H]2C(=O)N[C@@H](Cc2c[nH]cn2)C(=O)N[C@@H](CO)C(=O)N[C@@H](Cc2ccc(O)cc2)C(N)=O)C(C)C)C(C)C)[C@@H](C)O)[C@@H](C)CC)C(C)C)[C@@H](C)O)NC(=O)[C@H]([C@@H](C)O)NC(=O)CNC(=O)[C@H](Cc2ccccc2)NC(=O)[C@H](CCCNC(=N)N)NC1=O` [SEQ ID NO: 50], for which the Emax in test [1] came to 87%; in test [2] (setting [3]) it was 65%.

Consider `CSCC[C@H](NC(=O)[C@H](CC(C)C)NC(=O)[C@H](CCC(N)=O)NC(=O)[C@H](Cc1c[nH]c2ccccc12)NC(=O)[C@H](CC(C)C)NC(=O)[C@H](Cc1c[nH]cn1)NC(=O)[C@H](C)NC(=O)[C@H](CC(C)C)NC(=O)[C@H](CCCCN)NC(=O)[C@H](CCC(N)=O)NC(=O)[C@@H](NC(=O)[C@@H](NC(=O)[C@@H]1CSSC[C@H](NC(=O)CNC(=O)[C@@H](NC(C)=O)C(C)C)C(=O)N[C@@H](CCCNC(=N)N)C(=O)N[C@@H](Cc2ccccc2)C(=O)NCC(=O)N[C@@H]([C@@H](C)O)C(=O)N1)[C@@H](C)O)C(C)C)C(=O)NCC(=O)N1CCC[C@H]1C(=O)N[C@@H](C)C(=O)NCC(=O)N[C@@H](CCCNC(=N)N)C(=O)N[C@@H](CCC(N)=O)C(=O)N[C@@H](CC(=O)O)C(=O)N[C@@H](CO)C(=O)N[C@@H](C)C(=O)N1CCC[C@H]1C(=O)N[C@H](C(=O)N[C@@H](CC(=O)O)C(=O)N1CCC[C@H]1C(=O)N[C@@H](CO)C(=O)N[C@@H](CO)C(=O)N1CCC[C@H]1C(=O)N[C@@H](Cc1c[nH]cn1)C(=O)N[C@@H](CO)C(=O)N[C@@H](Cc1ccc(O)cc1)C(N)=O)C(C)C` [SEQ ID NO: 58], for which the Emax in test [2] (setting [3]) came to 0%.

In the case of `CCCCCCCCCCCCCCCC(=O)NCCCC[C@H](NC(=O)COCCOCCN)C(=O)NCC(=O)N[C@H]1CSSC[C@@H](C(=O)N[C@H](C(=O)N[C@H](C(=O)N[C@@H](CCC(N)=O)C(=O)N[C@@H](CCCCN)C(=O)N[C@@H](CC(C)C)C(=O)N[C@@H](C)C(=O)N[C@@H](Cc2c[nH]cn2)C(=O)N[C@@H](CCC(N)=O)C(=O)N[C@H](C(=O)N[C@@H](Cc2ccc(O)cc2)C(=O)N[C@@H](CCC(N)=O)C(=O)N[C@@H](Cc2ccccc2)C(=O)N[C@H](C(=O)N[C@@H](CC(=O)O)C(=O)N[C@@H](CCCCN)C(=O)NCC(=O)N[C@@H](CCCNC(=N)N)C(=O)N[C@@H](CCC(N)=O)C(=O)N[C@@H](CC(=O)O)C(=O)N[C@@H](CO)C(=O)N[C@@H](C)C(=O)N2CCC[C@H]2C(=O)N[C@H](C(=O)N[C@@H](CC(=O)O)C(=O)N2CCC[C@H]2C(=O)N[C@@H](CO)C(=O)N[C@@H](CO)C(=O)N2CCC[C@H]2C(=O)N[C@@H](Cc2c[nH]cn2)C(=O)N[C@@H](CO)C(=O)N[C@@H](Cc2ccc(O)cc2)C(N)=O)C(C)C)[C@@H](C)O)[C@@H](C)CC)C(C)C)[C@@H](C)O)NC(=O)[C@H]([C@@H](C)O)NC(=O)CNC(=O)[C@H](Cc2ccccc2)NC(=O)[C@H](CCCNC(=N)N)NC1=O` [SEQ ID NO: 68], in test [1], the Emax is 70%.

With `CSCC[C@H](NC(=O)CNC(=O)CNC(=O)[C@H](CO)NC(=O)[C@H](CCCNC(=N)N)NC(=O)[C@H](CO)NC(=O)[C@H](CC(C)C)NC(=O)[C@H](CC(C)C)NC(=O)CNC(=O)[C@H](C)NC(=O)[C@H](CC(C)C)NC(=O)[C@H](CCCNC(=N)N)NC(=O)[C@H](Cc1c[nH]cn1)NC(=O)[C@@H](NC(=O)[C@@H](NC(=O)[C@@H]1CSSC[C@H](NC(=O)[C@H](C)N)C(=O)N[C@@H](CC(N)=O)C(=O)N[C@@H]([C@@H](C)O)C(=O)N[C@@H](C)C(=O)N[C@@H]([C@@H](C)O)C(=O)N1)C(C)C)[C@@H](C)O)C(=O)N[C@H](C(=O)N[C@@H](CCCCN)C(=O)N[C@@H](CO)C(=O)N[C@@H](CC(N)=O)C(=O)N[C@@H](Cc1ccccc1)C(=O)N[C@H](C(=O)N1CCC[C@H]1C(=O)N[C@H](C(=O)N[C@@H](CC(N)=O)C(=O)N[C@H](C(=O)NCC(=O)N[C@@H](CO)C(=O)N[C@@H](CCCCN)C(=O)N[C@@H](C)C(=O)N[C@@H](Cc1ccccc1)C(N)=O)C(C)C)[C@@H](C)O)C(C)C)C(C)C` [Wild type CGRP-β positive, reference compound], the Emax in test [2] (1321-N1, 1321N1 cells, read-out: CLR/RAMP 1 Max Activity % of positive control) came to 100%.
